Measurements as given in paper PMC11748363, “Antimicrobial and Antiproliferative Properties of 2‐Phenyl‐N‐(Pyridin‐2‐yl)acetamides” (Chemical Biology & Drug Design, 2025).
Values after ≈ are worked out from the molar mass of the structure shown. Where two headings read alike, the source gives them in different places.

Experiments:
U‐87 MG cell line = test: Cytotoxicity CellTiter 96, U-87 MG; assay type: cell-based; conditions: Homo sapiens, 24 h incubation
Description: (§1) The cytotoxicity of final compounds was determined in human hepatocellular carcinoma cell line HepG2. Additional testing of selected compounds was performed on human epithelial kidney cancer cell line A498, human prostate cancer cell line PC‐3, human glioblastoma cell line U‐87 MG, and normal human proximal tubule cell line HK‐2.
(§2) Cytotoxicity determination […]
(§3) For subculturing, the cells were harvested after trypsin/EDTA (Sigma–Aldrich) treatment at 37 °C. To evaluate cytotoxicity, the cells treated with the tested substances were used as experimental groups whereas untreated HepG2 cells served as controls. The cells were seeded in density 10,000 cells per well in a 96 well plate. The next day the cells were treated with each of the tested substances dissolved in DMSO. The tested substances were […]
(§4) in triplicates according to their solubility. Simultaneously, the controls representing 100% cell viability, 0% cell viability (the cells treated with 10% DMSO), no cell control and vehiculum controls were also […]
(§5) the reagent from the kit CellTiter 96 AQueous One Solution Cell Proliferation Assay (CellTiter 96; PROMEGA, Fitchburg, USA) was added. After 2h incubation at 37 °C, absorbance of samples was recorded at 490 nm (TECAN, Infinita M200, Austria). A standard toxicological parameter IC50 was calculated by nonlinear regression from a semilogarithmic plot of incubation concentration versus percentage of absorbance relative to untre ated controls using GraphPad Prism 8 software. […]
(§6) Kaighn's Modification of Ham's F-12 Medium and human glioblastoma astrocytoma U-87 MG cell line, […]
(§7) Glucose medium. All cultures were supplemented with 10% fetal bovine serum, 1% non-essential amino acids (A498, HK-2 and U-87 MG), 1% sodium pyruvate (A498, HK-2 and U-87 MG) and 2 mM L-glutamine. All cell culture consumables were purchased from Merck (Darmstadt, Germany). The cells

[1] = system: Mycolicibacterium aurum DSM 43999; test: Antimycobacterial microdilution broth MIC (resazurin), M. aurum; assay type: cell-based; conditions: DSM43999, read-out: MIC M. aurum
[2] = system: Staphylococcus epidermidis CCM 4418, ATCC 12228; test: Antibacterial microdilution broth MIC, SE; assay type: cell-based
[3] = system: Pseudomonas aeruginosa CCM 3955, ATCC 27853; test: Antibacterial microdilution broth MIC, PA; assay type: cell-based
[4] = system: Staphylococcus aureus CCM 4223, ATCC 29213; test: Antibacterial microdilution broth MIC, SA; assay type: cell-based; conditions: Staphylococcus aureus
[5] = system: Aspergillus fumigatus ATCC 204305; test: Antifungal microdilution broth MIC, AF
[6] = system: Candida tropicalis CCM 8264, ATCC 750; test: Antifungal microdilution broth MIC, CT
PC‐3 cell line = test: Cytotoxicity CellTiter 96, PC-3; assay type: cell-based; conditions: Homo sapiens, 24 h incubation
Description: as §1, §2, §3, §4, §5, §6, §7

[7] = system: Lichtheimia corymbifera CCM 8077; test: Antifungal microdilution broth MIC, LC
[8] = system: Candida albicans CCM 8320, ATCC 24433; test: Antifungal microdilution broth MIC, CA
[9] = system: Staphylococcus aureus subsp. aureus CCM 4750, ATCC 43300 (MRSA); test: Antibacterial microdilution broth MIC, MRSA; assay type: cell-based; conditions: Staphylococcus aureus
[10] = system: Aspergillus flavus CCM 8363; test: Antifungal microdilution broth MIC, AFla
[11] = system: Klebsiella pneumoniae CCM 4415, ATCC 10031; test: Antibacterial microdilution broth MIC, KP
[12] = system: Mycolicibacterium smegmatis DSM 43465; test: Antimycobacterial microdilution broth MIC (resazurin), M. smegmatis; assay type: cell-based; conditions: DSM43465, read-out: MIC M. smegmatis
[13] = system: Candida parapsilosis CCM 8260, ATCC 22019; test: Antifungal microdilution broth MIC, CP; conditions: Lodderomyces parapsilosis
A498 cell line = test: Cytotoxicity CellTiter 96, A498; assay type: cell-based; conditions: Homo sapiens, 24 h incubation
Description: as §1, §2, §3, §4
the reagent from the kit CellTiter 96 AQueous One Solution Cell Proliferation Assay (CellTiter 96; PROMEGA, Fitchburg, USA) was added. After 2h incubation at 37 °C, absorbance of samples was recorded at 490 nm (TECAN, Infinita M200, Austria). A standard toxicological parameter IC50 was calculated by nonlinear regression from a semilogarithmic plot of incubation concentration versus percentage of absorbance relative to untre ated controls using GraphPad Prism 8 software.
Human epithelial kidney carcinoma A498 cell line, obtained from American Type Culture Collection (ATCC, Manassas, VA, USA, catalogue No.: HTB -44), was cultured in RPMI medium, Human normal kidney proximal tubule HK-2 cell line obtained from ATCC (ATCC, Manassas, VA, USA, catalogue No.:
as §6
Glucose medium. All cultures were supplemented with 10% fetal bovine serum, 1% non-essential amino acids (A498, HK-2 and U-87 MG), 1% sodium pyruvate (A498, HK-2 and U-87 MG) and 2 mM L-glutamine. […]

[14] = system: Trichophyton interdigitale CCM 8377, ATCC 9533; test: Antifungal microdilution broth MIC, TI; conditions: Trichophyton interdigitale
[15] = system: Acinetobacter baumannii DSM 30007, ATCC 19606; test: Antibacterial microdilution broth MIC, ACI; assay type: cell-based
[16] = ATCC204305, 24 h, read-out: MIC AF 24h
[17] = ATCC204305, 48 h, read-out: MIC AF 48h
[18] = CCM8077, 24 h, read-out: MIC LC 24h
[19] = CCM8077, 48 h, read-out: MIC LC 48h
[20] = CCM8363, 24 h, read-out: MIC AFla 24h
[21] = CCM8363, 48 h, read-out: MIC AFla 48h

Question: For O=C(Cc1ccccc1C(F)(F)F)Nc1cccc(Cl)n1 [Compound 24], which IC50 (U‐87 MG cell line) is on record?
Answer: > 250 µM

Question: What about the MIC [1] of the same compound?
Answer: > 500 µg/mL

Question: What about the MIC ([2]; 24 h, read-out: MIC SE 24h) of the same compound?
Answer: > 500 µM

Question: And the MIC ([2]; 48 h, read-out: MIC SE 48h)?
Answer: > 500 µM

Question: What about the MIC ([3]; 24 h, read-out: MIC PA 24h) of the same compound?
Answer: > 500 µM

Question: And the MIC ([3]; 48 h, read-out: MIC PA 48h)?
Answer: > 500 µM

Question: What about the MIC ([4]; 24 h, read-out: MIC SA 24h) of the same compound?
Answer: > 500 µM

Question: What about the MIC ([4]; 48 h, read-out: MIC SA 48h) of the same compound?
Answer: > 500 µM

Question: And the MIC [5, 16]?
Answer: > 500 µM

Question: And the MIC [5, 17]?
Answer: > 500 µM

Question: And the MIC ([6]; 24 h, read-out: MIC CT 24h)?
Answer: > 500 µM

Question: What about the MIC ([6]; 48 h, read-out: MIC CT 48h) of the same compound?
Answer: > 500 µM

Question: And the IC50 (PC‐3 cell line)?
Answer: > 100 µM

Question: And the MIC [7, 18]?
Answer: > 500 µM

Question: What about the MIC [7, 19] of the same compound?
Answer: > 500 µM

Question: And the MIC ([8]; 24 h, read-out: MIC CA 24h)?
Answer: > 500 µM

Question: What about the MIC ([8]; 48 h, read-out: MIC CA 48h) of the same compound?
Answer: > 500 µM

Question: And the MIC ([9]; 24 h, read-out: MIC MRSA 24h)?
Answer: > 500 µM

Question: And the MIC ([9]; 48 h, read-out: MIC MRSA 48h)?
Answer: > 500 µM

Question: What about the MIC [10, 20] of the same compound?
Answer: > 500 µM

Question: What about the MIC [10, 21] of the same compound?
Answer: > 500 µM

Question: And the “MIC KP 24h” value [11]?
Answer: > 500 µM

Question: What about the “MIC KP 48h” value [11] of the same compound?
Answer: > 500 µM

Question: What about the MIC [12] of the same compound?
Answer: > 500 µg/mL

Question: And the MIC ([13]; 24 h, read-out: MIC CP 24h)?
Answer: > 500 µM

Question: And the MIC ([13]; 48 h, read-out: MIC CP 48h)?
Answer: > 500 µM

Question: What about the IC50 (A498 cell line) of the same compound?
Answer: 278 µM

Question: And the MIC ([14]; 72 h, read-out: MIC TI 72h)?
Answer: 500 µM (≈ 157 µg/mL)

Question: And the MIC ([14]; 120 h, read-out: MIC TI 120h)?
Answer: 500 µM (≈ 157 µg/mL)

Question: And the MIC ([15]; 24 h, read-out: MIC ACI 24h)?
Answer: > 500 µM

Question: What about the MIC ([15]; 48 h, read-out: MIC ACI 48h) of the same compound?
Answer: > 500 µM

Question: For O=C(Cc1cccc(C(F)(F)F)c1)Nc1ccc(Cl)cn1 [Compound 26], which IC50 (U‐87 MG cell line) is on record?
Answer: 158 µM

Question: And the MIC [1]?
Answer: > 500 µg/mL

Question: And the MIC ([2]; 24 h, read-out: MIC SE 24h)?
Answer: > 500 µM

Question: And the MIC ([2]; 48 h, read-out: MIC SE 48h)?
Answer: > 500 µM

Question: And the MIC ([3]; 24 h, read-out: MIC PA 24h)?
Answer: > 500 µM

Question: What about the MIC ([3]; 48 h, read-out: MIC PA 48h) of the same compound?
Answer: > 500 µM

Question: What about the MIC ([4]; 24 h, read-out: MIC SA 24h) of the same compound?
Answer: > 500 µM

Question: What about the MIC ([4]; 48 h, read-out: MIC SA 48h) of the same compound?
Answer: > 500 µM

Question: What about the MIC [5, 16] of the same compound?
Answer: > 500 µM

Question: What about the MIC [5, 17] of the same compound?
Answer: > 500 µM

Question: What about the MIC ([6]; 24 h, read-out: MIC CT 24h) of the same compound?
Answer: > 500 µM

Question: What about the MIC ([6]; 48 h, read-out: MIC CT 48h) of the same compound?
Answer: > 500 µM

Question: And the IC50 (PC‐3 cell line)?
Answer: 73.1 µM

Question: And the MIC [7, 18]?
Answer: > 500 µM

Question: And the MIC [7, 19]?
Answer: > 500 µM

Question: What about the MIC ([8]; 24 h, read-out: MIC CA 24h) of the same compound?
Answer: > 500 µM

Question: And the MIC ([8]; 48 h, read-out: MIC CA 48h)?
Answer: > 500 µM

Question: What about the MIC ([9]; 24 h, read-out: MIC MRSA 24h) of the same compound?
Answer: > 500 µM

Question: What about the MIC ([9]; 48 h, read-out: MIC MRSA 48h) of the same compound?
Answer: > 500 µM

Question: What about the MIC [10, 20] of the same compound?
Answer: > 500 µM

Question: And the MIC [10, 21]?
Answer: > 500 µM

Question: And the “MIC KP 24h” value [11]?
Answer: > 500 µM

Question: What about the “MIC KP 48h” value [11] of the same compound?
Answer: > 500 µM

Question: And the MIC [12]?
Answer: 125 µg/mL (≈ 397 µM)

Question: And the MIC ([13]; 24 h, read-out: MIC CP 24h)?
Answer: > 500 µM

Question: And the MIC ([13]; 48 h, read-out: MIC CP 48h)?
Answer: > 500 µM

Question: What about the IC50 (A498 cell line) of the same compound?
Answer: 128 µM

Question: What about the MIC ([14]; 72 h, read-out: MIC TI 72h) of the same compound?
Answer: 500 µM (≈ 157 µg/mL)

Question: What about the MIC ([14]; 120 h, read-out: MIC TI 120h) of the same compound?
Answer: 500 µM (≈ 157 µg/mL)

Question: And the MIC ([15]; 24 h, read-out: MIC ACI 24h)?
Answer: > 500 µM

Question: What about the MIC ([15]; 48 h, read-out: MIC ACI 48h) of the same compound?
Answer: > 500 µM
